Values quoted from earlier work, collected in US8592371B2, “Aminotetrahydropyrans as dipeptidyl peptidase-IV inhibitors for the treatment or prevention of diabetes” (Merck Sharp & Dohme Corp, priority 2008, dated 2013).

What was measured:
DPP-4 = DPP-4 (Homo sapiens (Human), UniProt P27487); details: cited from earlier work
hematopoiesis = details: mouse, cyclophosphamide-induced neutropenia; cited from earlier work
cardiac allograft = details: rats; from day 7 to day 14; cited from earlier work

DPP-4, sequence (P27487 39-766, species assumed): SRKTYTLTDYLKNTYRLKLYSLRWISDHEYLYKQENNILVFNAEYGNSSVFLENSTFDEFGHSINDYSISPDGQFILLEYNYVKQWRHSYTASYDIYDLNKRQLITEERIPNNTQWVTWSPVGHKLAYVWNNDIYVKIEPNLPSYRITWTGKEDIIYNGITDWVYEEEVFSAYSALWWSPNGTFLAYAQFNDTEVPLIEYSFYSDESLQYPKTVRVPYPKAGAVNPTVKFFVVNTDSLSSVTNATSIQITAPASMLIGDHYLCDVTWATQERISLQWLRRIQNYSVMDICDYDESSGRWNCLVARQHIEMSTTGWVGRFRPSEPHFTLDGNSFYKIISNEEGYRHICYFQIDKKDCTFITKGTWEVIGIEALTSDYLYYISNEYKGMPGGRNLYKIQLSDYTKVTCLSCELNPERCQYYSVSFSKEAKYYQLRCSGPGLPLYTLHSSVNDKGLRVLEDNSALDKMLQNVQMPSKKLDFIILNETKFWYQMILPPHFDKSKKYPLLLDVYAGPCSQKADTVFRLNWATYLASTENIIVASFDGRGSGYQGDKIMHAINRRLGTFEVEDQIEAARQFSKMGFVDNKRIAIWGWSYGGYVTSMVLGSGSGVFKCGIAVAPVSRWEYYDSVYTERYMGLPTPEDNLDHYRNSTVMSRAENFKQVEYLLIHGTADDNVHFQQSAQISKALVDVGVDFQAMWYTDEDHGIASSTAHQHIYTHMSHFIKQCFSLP

In the case of diprotin A, the “degradation of GRF in plasma to GRF[3-44]” value (DPP-4) is listed as “prevented”.
In the case of `CC(C)[C@H](N)C(=O)N1CCC[C@H]1B(O)O` [Val-Boro-Pro], the hematopoiesis (hematopoiesis) is listed as “stimulated hematopoiesis”.
For `CC(C)N1CCC(c2ccccc2)(c2ccccc2)CC1` [Prodipine, Pro-Pro-diphenyl-phosphonate], the cardiac allograft survival (cardiac allograft) is given as “double”.
